The numbers were not newly measured in patent US20110160143A1, “Topical Acyl Glutathione Psoriasis Compositions” (priority 2009, published 2011), which cites them from elsewhere.

Structures are written as SMILES.

The test system of this data set is HIV patients. Particulars: oral administration.

Consider `O=C(O)CCCCC1CCSS1` (stereo not drawn) [alpha-lipoic acid, Alpha-lipoic acid], for which the glutathione levels entry is recorded as “raises glutathione levels”; the safety and tolerability result is “extremely safe and well tolerated”.
